From PubChem BioAssay (NCI)
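The compound was tested at five concentrations on cells cultured in 96-well plates, with a 48-hour exposure period. The concentration for full growth arrest is given as TGI.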

Experiments:
Experiment in all cases: NCI-60 cell line screen, 48 h
MDA-MB-435 = system: MDA-MB-435
UACC-62 melanoma = system: UACC-62 melanoma
LOX IMVI melanoma = system: LOX IMVI melanoma
SW-620 colon = system: SW-620 colon
COLO 205 colon = system: COLO 205 colon
T-47D breast = system: T-47D breast
SNB-75 CNS = system: SNB-75 CNS
SF-539 CNS = system: SF-539 CNS
HOP-92 NSCLC = system: HOP-92 NSCLC
DMS 114 small cell lung = system: DMS 114 small cell lung
M19-MEL melanoma = system: M19-MEL melanoma
LXFL 529 NSCLC = system: LXFL 529 NSCLC
KM20L2 colon = system: KM20L2 colon
DMS 273 small cell lung = system: DMS 273 small cell lung

SMILES | TGI (MDA-MB-435) [µM] | TGI (UACC-62 melanoma) [µM] | TGI (LOX IMVI melanoma) [µM] | TGI (SW-620 colon) [µM] | TGI (COLO 205 colon) [µM] | TGI (T-47D breast) [µM] | TGI (SNB-75 CNS) [µM] | TGI (SF-539 CNS) [µM] | TGI (HOP-92 NSCLC) [µM] | TGI (DMS 114 small cell lung) [µM] | TGI (M19-MEL melanoma) [µM] | TGI (LXFL 529 NSCLC) [µM] | TGI (KM20L2 colon) [µM] | TGI (DMS 273 small cell lung) [µM]
O=S(=O)(OI(O)CC(F)(F)F)C(F)(F)F | > 100 | > 100 | > 100 | > 100 | > 100 | > 100 | > 100 | > 100 | > 100 |  |  |  |  | 
CN(C)C(=O)C1CCN(Cc2c[nH]c3ccccc23)CC1 | > 100 | > 100 | > 100 | 30.7 | > 100 | > 100 | > 100 |  | > 100 |  |  |  |  | 
O=C(c1ccccc1)c1c(CC(O)c2ccccc2)n(C(=O)c2ccccc2)c2ccccc12 (centres undefined) |  | > 100 |  | > 100 | > 100 |  | 58.2 | > 100 | 98.9 | > 100 | > 100 | > 100 | > 100 | > 100
Cc1c(-c2ccccc2)c(C#N)c2nnn(-c3cccc(Cl)c3)c(=O)n12 | > 100 | > 100 | > 100 | > 100 | > 100 | > 100 | > 100 | > 100 | > 100 |  |  |  |  | 
CC(C)CN(CC#N)CC(C)C | > 100 | > 100 | > 100 | > 100 | > 100 | > 100 | > 100 |  | > 100 |  |  |  |  | 
COc1cccc2cc(C(=O)Nc3ccccn3)c(=N)oc12 | > 100 | > 100 | > 100 | > 100 | > 100 | > 100 | > 100 | > 100 | > 100 |  |  |  |  | 
Cc1c2c(ccc3ccccc32)c[n+]2ccccc12 |  |  |  | > 100 | 33.7 |  | 8.94 | 33.2 | 90.8 | 19.8 |  | 28.3 | 77 | 28.5
CC(=O)OCC(OC(C)=O)C(OC(C)=O)C(OC(C)=O)C(/C=N\Nc1nc2ccccc2c(=O)[nH]1)=N/Nc1nc2ccccc2c(=O)[nH]1 (centres undefined) | > 100 | > 100 | > 100 | > 100 | > 100 | > 100 | > 100 | > 100 | > 100 |  |  |  |  | 
COc1ccc(C[C@H](N)C(=O)N2C[C@@H](CO)C[C@@H](n3cnc4c(N(C)C)ncnc43)C2)cc1 |  | > 100 | > 100 | > 100 |  |  |  | > 100 | > 100 | > 100 | > 100 | > 100 | > 100 | > 100
Cn1c2c3c(F)c(F)ccc3nc-2cc2ccccc21 | 15.7 | 15.8 | 5.23 | 12.4 | 10.7 | 4.39 | 5.71 | 13.5 | 49.1 |  |  |  |  | 
CN(C)c1ccc(C2ON=C(c3ccccc3)N2C23CC4CC(CC(C4)C2)C3)cc1 (centres undefined) | > 10 | > 10 | > 10 | > 10 | > 10 | > 10 | > 10 | > 10 | > 10 |  |  |  |  | 
CC1OC(O[C@H]2CC[C@]3(C=O)[C@H]4CC[C@]5(C)[C@H](C6=CC(=O)OC6)CC[C@]5(O)[C@@H]4C=C[C@]3(O)C2)CC(O)C1O (some centres undefined) | 0.701 | 0.807 | 0.652 | 0.902 | 1.91 | 1.27 | 2.31 | 0.488 | 2.62 |  |  |  |  | 
Cc1cc(C)n(C(=O)CSc2nnc(SCC(=O)n3nc(C)cc3C)s2)n1 | > 100 | > 100 | > 100 | > 100 | > 100 | > 100 | > 100 | > 100 | > 100 |  |  |  |  | 
CCOC(=O)N1[C@@H]2CCC[C@@H]2C(=O)[C@@H]2CCC[C@@H]21 | > 100 | > 100 | > 100 | > 100 | > 100 | > 100 | > 100 |  | > 100 |  |  |  |  | 
NC(=O)C(Nc1ccc(Cl)cc1)c1cc2cc(Br)ccc2nc1Cl (centres undefined) | > 50 | > 50 | > 50 | > 50 | > 50 | > 50 | > 50 | > 50 | > 50 |  |  |  |  | 
O=[N+]([O-])c1cccc2nc3ccccc3c(NCCCN3CCCCC3)c12 | 0.0227 | 0.0298 | 0.0562 | 5.89 | 0.0201 | 0.182 | 0.0497 | 0.0451 | 0.0434 |  |  |  |  | 
COCCOCCOCCOc1ccc(C(C#N)N(CCc2ccccc2)C(=O)c2cc(C(=O)N(CCc3ccccc3)C(C#N)c3ccc(OCCOCCOCCOC)cc3)cc(C(=O)N(CCc3ccccc3)C(C#N)c3ccc(OCCOCCOCCOC)cc3)c2)cc1 (centres undefined) | > 100 | > 100 | > 100 | > 100 | > 100 | > 100 | > 100 | > 100 | > 100 |  |  |  |  | 
CCC(=O)NCCc1c2c3c(ccnc3c3ncsc13)-c1ccccc1N2 | > 64.5 | > 67.1 | > 82.6 | > 100 | > 100 | > 100 | > 88.3 | 7.52 | > 100 |  |  |  |  | 
OC(c1ccccc1)C(F)(F)c1nc2ccccc2o1 (centres undefined) | > 100 | > 100 | > 100 | > 100 | > 100 | > 100 | > 100 | > 100 | > 100 |  |  |  |  | 
O=C1NC(S(=O)(=O)O)=NNC12c1ccccc1-c1ccccc12 | > 10 | > 10 | > 10 | > 10 | > 10 | > 10 | > 10 | > 10 | > 10 |  |  |  |  | 
COC(=O)c1c(C(=O)OC)c2c3ccccc3n(C)c2c2c1c1ccccc1n2C | > 100 | > 100 | > 100 | > 100 | > 100 | > 100 | > 100 | > 100 | > 100 |  |  |  |  | 
